{
  "source": "patent US20230021483A1",
  "about": "“[…] […] METHOD AND CLASSIFICATION OF PHARMACEUTICAL COMPONENTS BY USING TRANSCRIPTOMES” (National Institutes of Biomedical Innovation, Health and …, priority 2016, published 2023)",
  "key": {"[1]": {"tested_on": "adjuvant-associated biological themes in LV, SP, LN", "in_short": "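Enrichment score S sums −log(p) over consensus themes whose names contain a pre-selected adjuvant-associated term such as \"stress\" or \"cytokine\". Consensus requires a theme in all three mice of a group, p<0.05. Themes come from TargetMine analysis of genes with eij/ei(c)>2.0, Fisher's exact test, Holm-Bonferroni-corrected.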"}, "liver (LV)": {"tested_on": "liver (LV)", "test": "Whole organ transcriptome (GeneChip microarray) of liver 6 h after adjuvant administration: sDEGs, hierarchical clustering; on adjuvant group (cluster) in LV: key: G1 (interferon signaling); G2 (metabolism of lipids and lipoproteins); G3 (response to stress); G4 (response to wounding); G5 (phosphate-containing compound metabolic process); G6 (phagosome)", "type": "in vivo, C57BL/6 mice", "settings": "liver; for Number of gene probes with statistically significant changes (sDEGs), LV, Down: fold change <0.667, p<0.01, customized PA call=1; for Number of gene probes with statistically significant changes (sDEGs), LV, Down / Number of gene probes with statistically significant changes (sDEGs), LV, Up: 6 h after adjuvant; for Number of gene probes with statistically significant changes (sDEGs), LV, Up: fold change >1.5, p<0.01, customized PA call=1"}},
  "data": [
    {"smiles": "CC(O)COC[C@H]1O[C@@H]2O[C@H]3[C@H](O)[C@@H](O)[C@@H](O[C@H]4[C@H](O)[C@@H](O)[C@@H](O[C@H]5[C@H](O)[C@@H](O)[C@@H](O[C@H]6[C@H](O)[C@@H](O)[C@@H](O[C@H]7[C@H](O)[C@@H](O)[C@@H](O[C@H]8[C@H](O)[C@@H](O)[C@@H](O[C@H]1[C@H](O)[C@H]2O)O[C@@H]8COCC(C)O)O[C@@H]7COCC(C)O)O[C@@H]6COCC(C)O)O[C@@H]5COCC(C)O)O[C@@H]4COCC(C)O)O[C@@H]3COCC(C)O", "note": "(stereo partly drawn) [bCD, Hydroxypropyl-beta-cyclodextrin]", "values": [
      {"measurement": "GO annotation: positive regulation of cytokine production (Term: cytokine)", "setting": "[1]; LV, ID", "value": 0},
      {"measurement": "GO annotation: positive regulation of defense response (Term: defense response)", "setting": "[1]; LV, ID", "value": 0},
      {"measurement": "GO annotation: positive regulation of immune response (Term: immune response)", "setting": "[1]; LV, ID", "value": 0},
      {"measurement": "GO annotation: positive regulation of inflammatory response (Term: inflammatory response)", "setting": "[1]; LV, ID", "value": 0},
      {"measurement": "GO annotation: positive regulation of innate immune response (Term: innate immune response)", "setting": "[1]; LV, ID", "value": 0},
      {"measurement": "GO annotation: positive regulation of interferon-alpha production (Term: IFN alpha)", "setting": "[1]; LV, ID", "value": 0},
      {"measurement": "GO annotation: positive regulation of leukocyte chemotaxis (Term: chemotaxis)", "setting": "[1]; LV, ID", "value": 0},
      {"measurement": "GO annotation: positive regulation of leukocyte migration (Term: migration)", "setting": "[1]; LV, ID", "value": 0},
      {"measurement": "GO annotation: positive regulation of programmed cell death (Term: cell death)", "setting": "[1]; LV, ID", "value": 0},
      {"measurement": "GO annotation: positive regulation of response to wounding (Term: wounding)", "setting": "[1]; LV, ID", "value": 0},
      {"measurement": "GO annotation: positive regulation of tumor necrosis factor superfamily cytokine (Term: cytokine)", "setting": "[1]; LV, ID", "value": 0},
      {"measurement": "GO annotation: production of molecular mediator of immune response (Term: immune response)", "setting": "[1]; LV, ID", "value": 0},
      {"measurement": "GO annotation: programmed cell death (Term: cell death)", "setting": "[1]; LV, ID", "value": 0},
      {"measurement": "GO annotation: regulation of I-kappaB kinase/NF-kappaB signaling (Term: NF-kappa B signaling pathway)", "setting": "[1]; LV, ID", "value": 0},
      {"measurement": "GO annotation: regulation of adaptive immune response (Term: adaptive immune response)", "setting": "[1]; LV, ID", "value": 0},
      {"measurement": "GO annotation: regulation of apoptotic process (Term: apoptosis)", "setting": "[1]; LV, ID", "value": 0},
      {"measurement": "GO annotation: regulation of apoptotic signaling pathway (Term: apoptosis)", "setting": "[1]; LV, ID", "value": 0},
      {"measurement": "GO annotation: regulation of cell death (Term: cell death)", "setting": "[1]; LV, ID", "value": 0},
      {"measurement": "GO annotation: regulation of cell migration (Term: migration)", "setting": "[1]; LV, ID", "value": 0},
      {"measurement": "GO annotation: regulation of chemokine production (Term: chemokine)", "setting": "[1]; LV, ID", "value": 0},
      {"measurement": "GO annotation: regulation of chemotaxis (Term: chemotaxis)", "setting": "[1]; LV, ID", "value": 0},
      {"measurement": "GO annotation: regulation of cytokine biosynthetic process (Term: cytokine)", "setting": "[1]; LV, ID", "value": 0},
      {"measurement": "GO annotation: regulation of cytokine production (Term: cytokine)", "setting": "[1]; LV, ID", "value": 4.06},
      {"measurement": "GO annotation: regulation of defense response (Term: defense response)", "setting": "[1]; LV, ID", "value": 6.85},
      {"measurement": "GO annotation: regulation of defense response to virus (Term: defense response)", "setting": "[1]; LV, ID", "value": 0},
      {"measurement": "GO annotation: regulation of defense response to virus by host (Term: defense response)", "setting": "[1]; LV, ID", "value": 0},
      {"measurement": "GO annotation: regulation of immune response (Term: immune response)", "setting": "[1]; LV, ID", "value": 0},
      {"measurement": "GO annotation: regulation of inflammatory response (Term: inflammatory response)", "setting": "[1]; LV, ID", "value": 7.33},
      {"measurement": "GO annotation: regulation of innate immune response (Term: innate immune response)", "setting": "[1]; LV, ID", "value": 0},
      {"measurement": "GO annotation: regulation of interferon-alpha production (Term: IFN alpha)", "setting": "[1]; LV, ID", "value": 0},
      {"measurement": "GO annotation: regulation of intrinsic apoptotic signaling pathway (Term: apoptosis)", "setting": "[1]; LV, ID", "value": 0},
      {"measurement": "GO annotation: regulation of leukocyte chemotaxis (Term: chemotaxis)", "setting": "[1]; LV, ID", "value": 0},
      {"measurement": "GO annotation: regulation of leukocyte migration (Term: migration)", "setting": "[1]; LV, ID", "value": 0},
      {"measurement": "GO annotation: regulation of programmed cell death (Term: cell death)", "setting": "[1]; LV, ID", "value": 0},
      {"measurement": "GO annotation: regulation of response to stress (Term: stress)", "setting": "[1]; LV, ID", "value": 0},
      {"measurement": "GO annotation: regulation of response to wounding (Term: wounding)", "setting": "[1]; LV, ID", "value": 6.31},
      {"measurement": "GO annotation: regulation of tumor necrosis factor superfamily cytokine production (Term: cytokine)", "setting": "[1]; LV, ID", "value": 0},
      {"measurement": "GO annotation: response to cytokine (Term: cytokine)", "setting": "[1]; LV, ID", "value": 7.77},
      {"measurement": "GO annotation: response to interferon-alpha (Term: IFN alpha)", "setting": "[1]; LV, ID", "value": 0},
      {"measurement": "GO annotation: response to stress (Term: stress)", "setting": "[1]; LV, ID", "value": 10.4},
      {"measurement": "GO annotation: response to wounding (Term: wounding)", "setting": "[1]; LV, ID", "value": 5.85},
      {"measurement": "GO annotation: taxis (Term: chemotaxis)", "setting": "[1]; LV, ID", "value": 0},
      {"measurement": "GO annotation: tumor necrosis factor superfamily cytokine production (Term: cytokine)", "setting": "[1]; LV, ID", "value": 0},
      {"measurement": "IFN beta: cellular response to interferon-beta", "setting": "[1]; LV, ID", "value": 0},
      {"measurement": "IFN beta: interferon-beta production", "setting": "[1]; LV, ID", "value": 0},
      {"measurement": "IFN beta: positive regulation of interferon-beta production", "setting": "[1]; LV, ID", "value": 0},
      {"measurement": "IFN beta: regulation of interferon-beta production", "setting": "[1]; LV, ID", "value": 0},
      {"measurement": "IFN beta: response to interferon-beta", "setting": "[1]; LV, ID", "value": 0},
      {"measurement": "IFN gamma: cellular response to interferon-gamma", "setting": "[1]; LV, ID", "value": 0},
      {"measurement": "IFN gamma: interferon-gamma production", "setting": "[1]; LV, ID", "value": 0},
      {"measurement": "IFN gamma: regulation of interferon-gamma production", "setting": "[1]; LV, ID", "value": 0},
      {"measurement": "IFN gamma: response to interferon-gamma", "setting": "[1]; LV, ID", "value": 0},
      {"measurement": "interleukin-6: interleukin-6 production", "setting": "[1]; LV, ID", "value": 0},
      {"measurement": "interleukin-6: positive regulation of interleukin-6 production", "setting": "[1]; LV, ID", "value": 0},
      {"measurement": "interleukin-6: regulation of interleukin-6 production", "setting": "[1]; LV, ID", "value": 0},
      {"measurement": "interleukin-12: interleukin-12 production", "setting": "[1]; LV, ID", "value": 0},
      {"measurement": "interleukin-12: positive regulation of interleukin-12 production", "setting": "[1]; LV, ID", "value": 0},
      {"measurement": "interleukin-12: regulation of interleukin-12 production", "setting": "[1]; LV, ID", "value": 0},
      {"measurement": "GO annotation: adaptive immune response based on somatic recombination of immune receptors built from immunoglobulin superfamily domains (Term: adaptive immune response)", "setting": "[1]; mouse, in vivo", "value": 0},
      {"measurement": "GO annotation: regulation of adaptive immune response based on somatic recombination of immune receptors built from immunoglobulin superfamily domains (Term: adaptive immune response)", "setting": "[1]; mouse, in vivo", "value": 0},
      {"measurement": "adjuvant group (cluster) in LV", "setting": "liver (LV); hierarchical clustering", "value": "G2"},
      {"measurement": "Number of gene probes with statistically significant changes (sDEGs), LV, Down", "setting": "liver (LV); i.d. administration", "value": 315},
      {"measurement": "Number of gene probes with statistically significant changes (sDEGs), LV, Up", "setting": "liver (LV); i.d. administration", "value": 107},
      {"measurement": "Number of gene probes with statistically significant changes (sDEGs), LV, Down", "setting": "liver (LV); i.p. administration", "value": 20},
      {"measurement": "Number of gene probes with statistically significant changes (sDEGs), LV, Up", "setting": "liver (LV); i.p. administration", "value": 14}
    ]}
  ]
}
